Test results as given in patent US9451775B2, “Heterocyclic compounds as pesticides” (Bayer Intellectual Property GmbH, priority 2008, dated 2016).
Like-named read-outs stand apart in the source and are kept apart here.

Test: logP determination by HPLC (formic acid method)
Assay type: physicochemical
Conditions: read-out: logP (HCOOH)
Method: 1) Description of the method for determining the logP values (formic acid method)
The logP values given in the table were determined in accordance with EEC Directive 79/831 Annex V.A8 by HPLC (High Performance Liquid Chromatography) on a reversed-phase column (C18). Temperature: 55° C.
Mobile phases for the determination in the acidic range (pH 3.4):
Mobile phase A: Acetonitrile+1 ml of formic acid/litre. Mobile phase B: water+0.9 ml of formic acid/litre.
Gradient: from 10% mobile phase A/90% mobile phase B to 95% mobile phase A/5% mobile phase B in 4.25 min.
Calibration was carried out using unbranched alkan-2-ones (having 3 to 16 carbon atoms) with known logP values (determination of the logP values by the retention times using linear interpolation between two successive alkanones). The lambda max values were determined in the maxima of the chromatographic signals using the UV spectra from 200 nm to 400 nm.

[1] = reversed-phase HPLC column (C18), pH 3.4, HPLC on reversed-phase column (C18), acidic range (pH 3.4), 55° C.
[2] = reversed-phase HPLC column (C18), pH 3.4, values printed in the text of the preparation examples, formic acid method
[3] = pH 3.4, values given in the preparation examples, formic acid method

SMILES | chromatographic logP [1] | other results
Cn1nc(-c2cccnc2)cc1-c1cccc(Br)n1 [compound 190] | 1.67 | 
Cc1nc(-c2cccnc2)sc1C(=O)NN(CCO)c1ncccn1 [4-Methyl-2-pyridin-3-ylthiazole-5-carboxylic acid N-(hydroxyethyl)-N-pyrimidin-2-ylhydrazide] |  | chromatographic logP [2]: 1.08
Cc1nc(-c2cccnc2)sc1-c1ccnc(N(C)C)n1 [compound 194] | 2.15 | 
COCCNC(=S)n1ccc(-c2sc(-c3cccnc3)nc2C)n1 [compound 196] | 3.01 | 
O=C1CCCN1c1cccc(-c2cnc(-c3cccnc3)s2)n1 [compound 206] | 2.11 | 
COc1cc(OC)nc(-c2nc(-c3sc(-c4cccnc4)nc3C)cs2)n1 [compound 176] | 3.21 | 
CON(C)C(=O)c1cccc(-c2nnc(-c3cccnc3)s2)n1 [compound 249] | 1.29 | 
Cc1cccc(-c2csc(-c3sc(-c4cccnc4)nc3C)n2)n1 [compound 173] | 2.66 | 
Cc1nc(-c2cccnc2)sc1-c1cccc(C#N)n1 [6-(4-Methyl-2-pyridin-3-ylthiazol-5-yl)pyridine-2-carbonitrile] |  | chromatographic logP [2]: 2.11
CN(C)C(=O)c1cccc(-c2nnc(-c3cccnc3)s2)n1 [compound 221] | 1.34 | 
CON(C)C(=O)c1csc(-c2sc(-c3cccnc3)nc2C)n1 [compound 229] | 1.78 | 
Cc1cc(C)nc(-c2nc(-c3sc(-c4cccnc4)nc3C)cs2)n1 [compound 197] | 2.58 | 
c1cncc(-c2ncc(-c3cnc(-c4cccnc4)s3)s2)c1 [compound 217] | 1.43 | 
COC(=O)c1cc(-c2cccnc2)n(C)n1 (single isomer, unassigned) [drawing 76 isomer 2] |  | chromatographic logP [3]: 0.77
Cc1cnn(-c2cccc(-c3cnc(-c4cccnc4)s3)n2)c1 [compound 188] | 3.08 | 
CN(C)c1cccc(-c2cnc(-c3cccnc3)s2)n1 [compound 200] | 2.83 | 
c1cncc(-c2nncs2)c1 [3-[1,3,4]Thiadiazol-2-ylpyridine] |  | chromatographic logP [2]: 0.15
Cc1nc(-c2cccnc2)sc1-c1nc(C(=O)NC(C)C2CC2)cs1 (stereo not drawn) [compound 233] | 2.69 | 
c1cncc(-c2ncc(-c3cccc(-c4ncon4)n3)s2)c1 [compound 182] | 1.74 | 
Cc1nc(-c2cccnc2)sc1-c1nc(C(=O)N(C)CC(F)(F)F)cs1 [compound 238] | 2.53 | 
Cc1nc(-c2cccnc2)sc1-c1nc(C(=O)N2CCCO2)cs1 [compound 242] | 1.61 | 
O=C(NCC(F)(F)F)c1cccc(-c2nnc(-c3cccnc3)s2)n1 [compound 241] | 2.07 | 
Cc1nc(-c2cccnc2)sc1-c1nc(-c2ccccn2)cs1 [compound 172] | 2.53 | 
c1cncc(-c2ncc(-c3cccc(C4OCCO4)n3)s2)c1 [compound 205] | 1.82 | 
CC(F)(F)c1cccc(-c2cnc(-c3cccnc3)s2)n1 [compound 224] | 2.77 | 
Cc1nc(-c2cccnc2)sc1-c1nc(C(=O)NC(C)(C)C)cs1 [compound 234] | 2.93 | 

SMILES | chromatographic logP [1] | other results
c1cncc(-c2ncc(-c3cccc(-n4ccnc4)n3)s2)c1 [compound 199] | 0.93 | 
CC(=O)c1cc(-c2cccnc2)nn1C |  | chromatographic logP [2]: 0.61
COC(OC)c1cccc(-c2cnc(-c3cccnc3)s2)n1 [compound 225] | 2.08 | 
Cn1nc(-c2cccnc2)cc1-c1cccnc1 [compound 218] | 0.89 | 
Cc1nc(-c2cncnc2)sc1-c1ccnc(-c2ncccn2)n1 [compound 179] | 1.06 | 
Cc1nc(-c2cccnc2)sc1-c1ccn(-c2nc(Cl)ns2)n1 [compound 195] | 3.76 | 
CCOC(=O)C(=O)NNC(=O)c1cccnc1 [Ethyl oxo-[N′-(pyridin-3-carbonyl)hydrazino]acetate] |  | chromatographic logP [2]: -0.13
Cn1nc(-c2cccnc2)cc1-c1cncc(F)c1 [compound 228] | 0.89 | 
c1cncc(-c2ncc(-c3cccc(-n4cccn4)n3)s2)c1 [compound 187] | 2.53 | 
Cn1nc(-c2cccnc2)cc1-c1cccc(-c2ncccn2)n1 [compound 192] | 1.12 | 
Cc1nccn1-c1cccc(-c2cnc(-c3cccnc3)s2)n1 [compound 201] | 0.89 | 
Brc1cccc(C2=NOCCO2)n1 [3-(6-Bromopyridin-2-yl)-5,6-dihydro-[1,4,2]dioxazine] |  | chromatographic logP [2]: 1.37
c1cncc(-c2ncc(-c3cccc(-n4cccc4)n3)s2)c1 [compound 202] | 3.13 | 
COC(=O)c1cc(-c2cccnc2)nn1C (single isomer, unassigned) [drawing 76 isomer 1] |  | chromatographic logP [3]: 0.84
c1cncc(-c2nccs2)c1 [3-Thiazol-2-ylpyridine] |  | chromatographic logP [2]: 0.62
Cc1nc(-c2cccnc2)sc1-c1nc(C(=O)N(C)C)cs1 [compound 243] | 1.67 | 
CS(=O)(=O)c1cccc(-c2cnc(-c3cccnc3)s2)n1 [compound 184] | 1.44 | 
Cc1nc(-c2cccnc2)sc1-c1cccc(C(N)=S)n1 [6-(4-Methyl-2-pyridin-3-ylthiazol-5-yl)pyridine-2-carbothioamide] |  | chromatographic logP [2]: 2.13
Cc1nc(-c2cccnc2)sc1-c1csc(-c2cccnc2)n1 [compound 177] | 2.19 | 
Clc1cccc(-c2cnc(-c3cccnc3)s2)n1 [compound 178] | 2.43 | 
Cc1ccn(-c2cccc(-c3cnc(-c4cccnc4)s3)n2)n1 [compound 189] | 2.85 | 
c1cncc(-c2ncc(-c3cccc(C4OCCCO4)n3)s2)c1 [compound 203] | 1.99 | 
Cc1nc(-c2cncc(F)c2)sc1-c1ccnc(-c2ncccn2)n1 [compound 186] | 1.63 | 
O=C(NO)c1cccc(Br)n1 [6-Bromopyridine-2-carboxylic acid hydroxyamide] |  | chromatographic logP [2]: 0.69
Cc1cc(-c2sc(-c3cncc(F)c3)nc2C)nc(-c2ncccn2)n1 [compound 185] | 1.68 | 
COC(=O)c1cccc(-c2cnc(-c3cccnc3)s2)n1 [compound 244] | 1.77 | 

SMILES | chromatographic logP [1] | other results
Cc1nc(-c2cccnc2)sc1C(=O)/C=C/N(C)C [3-Dimethylamino-1-(4-methyl-2-pyridin-3-ylthiazol-5-yl)propenone] |  | chromatographic logP [2]: 1.35
Cn1nc(-c2cccnc2)cc1-c1cc[nH]n1 [drawing 82] |  | chromatographic logP [2]: 0.42
CC(=O)c1nnc(-c2cccnc2)s1 [1-(5-Pyridin-3-yl-[1,3,4]thiadiazol-2-yl)ethanone] |  | chromatographic logP [2]: 1.16
CC(F)(F)c1ccc(-c2cnc(-c3cccnc3)s2)nc1 [compound 223] | 2.46 | 
Cc1nc(-c2cccnc2)sc1-c1nc(C(=O)NCC(F)(F)C(F)F)cs1 [compound 235] | 2.38 | 
O=C1CCCCN1c1cccc(-c2cnc(-c3cccnc3)s2)n1 [compound 204] | 1.87 | 
Cn1nc(-c2cccnc2)cc1-c1cccnc1Cl [compound 226] | 0.98 | 
Cc1nc(-c2cccnc2)sc1Br [3-(5-Bromo-4-methylthiazol-2-yl)pyridine] |  | chromatographic logP [2]: 2.3
Cc1nc(-c2cccnc2)sc1-c1cccc(Cl)n1 [2-Chloro-6-(4-methyl-2-pyridin-3-ylthiazol-5-yl)pyridine] |  | chromatographic logP [2]: 2.66
CNc1nc(-c2sc(-c3cccnc3)nc2C)cs1 [compound 174] | 1.76 | 
Cc1nc(-c2cccnc2)sc1-c1nc(C(=O)N2CCCCC2)cs1 [compound 236] | 2.38 | 
COc1ccc(-c2cc(-c3cccnc3)nn2C)cn1 [compound 246] | 1.14 | 
Cc1nc(-c2cccnc2)sc1-c1nc(C(=O)N2CCCC2)cs1 [compound 237] | 2.05 | 
c1cncc(-c2ncc(-c3cccc(-c4nccnn4)n3)s2)c1 [compound 180] | 1.43 | 
CN(C)/C=C/C(=O)c1nnc(-c2cccnc2)s1 [(3-Dimethylamino-1-(5-pyridin-3-yl-[1,3,4]thiadiazol-2-yl)propenone] |  | chromatographic logP [2]: 1.05
CN(C)/C=C/C(=O)c1cc(-c2cccnc2)nn1C |  | chromatographic logP [2]: 0.6
O=C(c1cccc(-c2nnc(-c3cccnc3)s2)n1)N1CCOCC1 [compound 250] | 1.29 | 
Cn1nc(-c2cccnc2)cc1-c1cncc(C#N)c1 [compound 227] | 0.89 | 
CNc1nccc(-c2sc(-c3cccnc3)nc2C)n1 [compound 193] | 1.41 | 
Cc1nc(-c2cccnc2)sc1-c1nc(C(=O)NCC(F)(F)F)cs1 [compound 175] | 2.23 | 
CC(=O)c1sc(-c2cccnc2)nc1C [3-(5-Acetyl-4-methylthiazol-2-yl)pyridinium chloride] |  | chromatographic logP [2]: 1.48
CN1CCOC(c2cccc(-c3cnc(-c4cccnc4)s3)n2)=N1 [compound 181] | 1.82 | 
Cc1nc(-c2cccnc2)sc1-c1cc[nH]n1 [3-[4-Methyl-5-(1H-pyrazol-3-yl)thiazol-2-yl]pyridine] |  | chromatographic logP [2]: 1.31
CCN(C)C(=O)c1cccc(-c2nnc(-c3cccnc3)s2)n1 [compound 248] | 1.54 | 
Nc1cccc(-c2cnc(-c3cccnc3)s2)n1 [compound 219] | 0.92 | 
c1cncc(-c2ncc(-c3cccc(-c4nc[nH]n4)n3)s2)c1 [compound 183] | 1.24 | 
